Test results from patent US10238633B2, “Methods for treating pulmonary emphysema using substituted 2-Aza-bicyclo[2.2.1]heptane-3-carboxylic acid (benzyl-cyano-methyl)-amides inhibitors of Cathepsin C” (Boehringer Ingelheim International GmbH, priority 2013, dated 2019).
Read-outs that look alike come from different tables or passages of the source.

Experiments:
[1] = microsomes
Description: (§1) Determination of Metabolic Stability with Human Liver Microsomes
(§2) The metabolic degradation of the test compound is assayed at 37° C. with pooled human liver microsomes. The final incubation volume of 100 μl per time point contains TRIS buffer pH 7.6 (0.1 M), magnesium chloride (5 mM), microsomal protein (1 mg/ml) and the test compound at a final concentration of 1 μM. Following a short preincubation period at 37° C., the reactions are initiated by addition of beta-nicotinamide adenine dinucleotide phosphate, reduced form (NADPH, 1 mM) and terminated by transferring an aliquot into acetonitrile after different time points. Additionally, the NADPH-independent degradation is monitored in incubations without NADPH, terminated at the last time point. The [%] remaining test compound after NADPH independent incubation is reflected by the parameter c(control) (metabolic stability). The quenched incubations are pelleted by centrifugation (10,000 g, 5 min). An aliquot of the supernatant is assayed by LC-MS/MS for the amount of parent compound.
(§3) The half-life (t1/2 INVITRO) is determined by the slope of the semilogarithmic plot of the concentration-time profile. The intrinsic clearance (CL_[sequence]) is calculated by considering the amount of protein in the incubation: CL_[sequence] [μl/min/mg protein]=(In 2/(half-life [min]*protein content [mg/ml]))*1,000.

[2] = Determination of metabolic stability with human liver microsomes; conditions: pooled human liver microsomes, 37° C., test compound 1 μM, NADPH
Description: as §1, §2, §3

[3] = tested on: Neutrophil elastase activity in U937 cells; experiment: Determination of neutrophil elastase activity in U937 cytosolic lysate preparation after incubation with test compound; format: cell-based; conditions: Homo sapiens, U-937, read-out: Reduction of NE-activity in U937 cells IC50
Description: Determination of Neutrophil Elastase Activity in U937 Cytosolic Lysate Preparation after Incubation with Test Compound
Optiplate 384F were purchased from PerkinElmer (Prod. No. #6007270). 24 well Nunclon cell culture plates (No. 142475) and 96 well plates (No. 267245) were from Nunc. Dimethylsulfoxid (DMSO) was from Sigma (Prod. No. D8418). Nonidet-P40 (NP40) was from USBiological (Prod. No. N3500)
Substrate, specific for Neutrophil elastase, was from Bachem (MeOSuc-Ala-Ala-Pro-Val-AMC; Prod. No. 1-1270).
Human neutrophil elastase was from Calbiochem (Prod. No. 324681)
Tris-buffer (100 mM Tris; 1M NaCL; pH 7.5)
Tris-buffer+HSA 0.1%; Human Serum Albumin from Calbiochem (Cat#. 126658)
Serine-protease buffer (20 mM Tris; 100 mM NaCL; pH 7.5)+0.1% HSA
Serine protease lysis buffer: 20 mM Tris-HCL; 100 mM NaCl pH 7.5; +0.2% Nonidet-P40;
PBS: phosphate buffered saline, without Ca and Mg, from Gibco
U937 from ECACC (Cat. No. 85011440) cultured in suspension at 37° C. and 5% CO2.
Cell density: 0.2-1 Mio. Cells/ml.
Medium: RPMI1640 GlutaMAX (No. 61870) with 10% FCS from Gibco
Cell Seeding and Treatment:
Compounds in 100% DMSO were diluted in Medium (—FCS) with 10% DMSO and further diluted according to the experiment planned.
20 μl of the compound solution was transferred in the respective wells of the 24 well plate and diluted with 2 ml cell suspension/well containing […] (final concentration of DMSO=0.1%). Compound dilution factor=100
Compounds (up to 7 concentrations) were tested in triplicates with 3 wells for the DMSO 0.1% control, incubated for 48 hours without medium change at 37° C., 5% CO2 and 95% relative humidity.
Cell Harvesting and Cell Lysate:
Transfer the cell suspension in 2.2 ml Eppendorf cups. Separate cells from medium by centrifugation (400×g; 5 min; RT); discard the supernatant. Resuspend in 1 ml PBS; centrifugation (400×g; 5 min; RT); wash cells twice with PBS. Add 100 μl Serin lysis buffer (ice cold) to the cell pellet; resuspend the pellet and store on ice for 15 minutes. Remove debris by centrifugation at 15000×g for 10 min at 4° C. Transfer 80-100 μl lysate supernatant in 96 well plate and store immediately at −80° C.
Neutrophil Elastase Activity Assay:
Frozen lysates were thawn at 37° C. for 10 minutes and stored on ice. Protein content was determined with Bradford protein assay. Lysates were diluted to 0.2-0.5 mg/ml protein in serine protease buffer+HSA.
Standard: NE (100 μg/ml stock solution in Tris-buffer; stored at −80° C.) was diluted in Tris-buffer+HSA to 750 ng/ml, and further serially diluted 1:2 for the standard curve.
Buffer, blank, standard and lysate samples were transferred into 384 well plate
Blank: 5 μl Tris-buffer+10 μl Tris-buffer+HSA+5 μl Substrate
Standard: 5 μl Tris-buffer+10 μl NE (diff. conc.)+5 μl Substrate
Lysate: 5 μl Tris-buffer+10 μl Lysat+[…] Substrate
The increase in fluorescence (Ex360 nm/Em 460 nm) is determined over 30 minutes with a Molecular Device Spectramax M5 Fluorescence Reader. Kinetic Reduction (Vmax units/sec); 4 vmax points. The amount of neutrophil elastase (ng/ml) is calculated using the standard curve and the Spectramax software. The result is interpolated to ng/mg lysate protein using excel formula functions. […] IC50 is calculated using Graphpad Prism; nonlinear fitting (log(inhibitor) vs. response—Variable slope).

Structure (SMILES) | In vitro stability in human liver microsome incubations t½ [2] [h] | IC50 [3] [nM] | In vitro stability in human liver microsome incubations t½ [1] [h]
N#C[C@H](Cc1ccc(-c2cc(C(=O)N3CCn4nccc4C3)co2)cc1F)NC(=O)[C@H]1N[C@@H]2CC[C@H]1C2 [Example 240] | – | – | 1.83
CS(=O)(=O)c1cc(OCC(F)(F)F)cc(-c2ccc(C[C@@H](C#N)NC(=O)[C@H]3N[C@@H]4CC[C@H]3C4)c(F)c2)c1 [Example 276] | 2.17 | – | –
N#C[C@H](Cc1ccc(N2CC3CCN(C4CCOC4)C3C2)cc1F)NC(=O)[C@H]1N[C@@H]2CC[C@H]1C2 (stereo partly shown) [Example 348] | 2.17 | 2 | –
N#C[C@H](Cc1ccc(N2CCCN3CCCC3C2)cc1F)NC(=O)[C@H]1N[C@@H]2CC[C@H]1C2 (stereo partly shown) [Example 271] | 2.17 | 1.7 | –
CN1CC2CCC(C1)N2c1ccc(C[C@@H](C#N)NC(=O)[C@H]2N[C@@H]3CC[C@H]2C3)c(F)c1 [Example 328] | – | 1.2 | –
N#C[C@H](Cc1cc2c(=O)[nH]c3c(F)c(F)ccc3c2cc1F)NC(=O)[C@H]1N[C@@H]2CC[C@H]1C2 [Example 324] | – | 1.3 | –
COCCN1C(C)CN(c2ccc(C[C@@H](C#N)NC(=O)[C@H]3N[C@@H]4CC[C@H]3C4)c(F)c2)CC1C (stereo partly shown) [Example 191] | – | 3.3 | –
N#C[C@H](Cc1ccc(C2=CC3COCCN3CC2)cc1F)NC(=O)[C@H]1N[C@@H]2CC[C@H]1C2 (stereo partly shown) [Example 282] | – | 3.4 | –
N#Cc1ccc(-c2ccc(C[C@@H](C#N)NC(=O)[C@H]3N[C@H]4C[C@@H]3[C@@H]3C[C@@H]34)c(F)c2)s1 [Example 40] | – | – | >2.17
N#C[C@H](Cc1ccc(N2CCC(N3CCOCC3)CC2)cc1F)NC(=O)[C@H]1N[C@@H]2CC[C@H]1C2 [Example 193] | – | 6.5 | –
CC(C)N1CCCN(c2ccc(C[C@@H](C#N)NC(=O)[C@H]3N[C@@H]4CC[C@H]3C4)c(F)c2)CC1 [Example 267] | – | 2.7 | –
CC1CN(c2ccc(C[C@@H](C#N)NC(=O)[C@H]3N[C@@H]4CC[C@H]3C4)c(F)c2)C(C)CN1C (stereo partly shown) [Example 196] | – | 5.3 | –
CN(C)CC1CCCN(c2ccc(C[C@@H](C#N)NC(=O)[C@H]3N[C@@H]4CC[C@H]3C4)c(F)c2)C1 (stereo partly shown) [Example 345] | – | 6.9 | –
N#C[C@H](Cc1ccc(N2CCN(C3CCOC3)CC2)cc1F)NC(=O)[C@H]1N[C@@H]2CC[C@H]1C2 (stereo partly shown) [Example 331] | – | 6 | –

Continued, in another order:

In vitro stability in human liver microsome incubations t½ [2] [h] | IC50 [3] [nM] | Structure (SMILES) | In vitro stability in human liver microsome incubations t½ [1] [h]
2.17 | – | CS(=O)(=O)c1ccc(-c2ccc(C[C@@H](C#N)NC(=O)[C@H]3N[C@@H]4CC[C@H]3C4)c(F)c2)cc1OCC(F)F [Example 252] | –
2.17 | – | CN1C(=O)Cc2ccc(-c3ccc(CC(C#N)NC(=O)[C@H]4N[C@@H]5CC[C@H]4C5)c(F)c3)cc21 (stereo partly shown) [Example 15] | –
– | 2.4 | CN1CCN(c2ccc(C[C@@H](C#N)NC(=O)[C@H]3N[C@@H]4CC[C@H]3C4)c(F)c2)CC1 [Example 6, (1S,2S,4R)—N-[(1S)-1-cyano-2-[2-fluoro-4-(4-methylpiperazin-1-yl)phenyl]ethyl]-3-azabicyclo[2.2.1]heptane-2-carboxamide] | –
– | 3.8 | CN1CCN(C(=O)c2cccc(-c3ccc(C[C@@H](C#N)NC(=O)[C@H]4N[C@@H]5CC[C@H]4C5)c(F)c3)c2)CC1 [Example 245] | –
– | 9.2 | N#C[C@H](Cc1ccc(-c2ccc(S(=O)(=O)N3CCCCC3)cc2)cc1F)NC(=O)[C@H]1N[C@@H]2CC[C@H]1C2 [Example 177] | –
– | 9.2 | N#C[C@H](Cc1ccc(N2CCN3CCOCC3C2)cc1F)NC(=O)[C@H]1N[C@@H]2CC[C@H]1C2 (stereo partly shown) [Example 43] | –
– | 6.9 | N#C[C@H](Cc1ccc(-c2csc(C(=O)N3CCN4CCOCC4C3)c2)cc1F)NC(=O)[C@H]1N[C@@H]2CC[C@H]1C2 (stereo partly shown) [Example 234] | –
2.17 | – | N#CC(Cc1ccc(-c2cnn(-c3ccccc3)c2)cc1F)NC(=O)[C@H]1N[C@@H]2CC[C@H]1C2 (stereo partly shown) [Example 78] | –
– | 2.8 | CN1CCN(C(=O)c2cc(-c3ccc(C[C@@H](C#N)NC(=O)[C@H]4N[C@@H]5CC[C@H]4C5)c(F)c3)cs2)CC1 [Example 225] | –
